{"source": "patent US12409159B2", "about": "“3-hydroxybutyrate alone or in combination for use in the treatment of critical care treatment” (KATHOLIEKE UNIVERSITEIT LEUVEN, priority 2016, dated 2025)", "key": {"[1]": {"system": "mouse model of prolonged critical illness evoked by sepsis (cecal ligation and puncture)", "test": "Muscle wasting: weight of isolated skeletal muscles (EDL, tibialis anterior) in prolonged critically ill mice", "assay_type": "in vivo", "conditions": "Example 7, first experiment, fasted critically ill mice", "protocol": "To control for potential illness- or resuscitation-related changes in fluid content, dry weight of isolated tissues was obtained by a freeze-drying process. Myofiber cross-sectional area (CSA) was quantified on digital microscopy images of hematoxylin and eosin stained paraffin sections with in-house designed algorithms. In addition, the presence of myofiber degeneration, necrosis and inflammation was histologically evaluated. Triglyceride content of tissues was determined with a commercial colorimetric assay (triglyceride quantification kit, Abcam, Cambridge, UK).\n(§1) We studied the effect of subcutaneous administration of D,L-3-hydroxybutyrate sodium salt on muscle wasting and weakness in a validated mouse model of prolonged critical illness evoked by sepsis (cecal ligation and puncture followed by resuscitation and intensive medical care). The intervention was studied in the parenterally fed and in the fasted state.\nMuscle wasting was evaluated by quantification of the dry weight of isolated skeletal muscles. Muscle weight of the EDL muscle decreased in all critically ill mice, irrespective of hydroxybutyrate treatment or nutritional regime (1.9±0.3 mg for PN, 2.1±0.3 mg for PN+3HB, and 2.0±0.4 mg for fasting+3HB as compared with 2.7±0.3 mg in healthy control mice; p<0.0001) (FIG. 11A). […]\n(§2) Muscle mass and function was quantified in isolated extensor digitorum longus (EDL) muscle. […]"}, "[2]": {"system": "mouse model of prolonged critical illness evoked by sepsis (cecal ligation and puncture)", "test": "5-day mortality in prolonged critically ill mice", "assay_type": "in vivo", "excerpt": "FIG. 10. Effect of 3-hydroxybutyrate injections on 5-day mortality in prolonged critically ill mice. Black line, healthy control mice (15/15 survivors); gray line, parenterally fed critically ill mice (17/20 survivors); dash dot line; parenterally fed critically ill mice receiving 3-hydroxybutyrate (17/21 survivors); dotted line, fasted critically ill mice receiving 3-hydroxybutyrate (14/22 survivors). [PN=parenteral nutrition; 3HB=3-hydroxybutyrate].\nas §1\nMuscle function was quantified in isolated extensor digitorum longus (EDL) muscle. Critical illness in parenterally fed mice (PN) reduced the absolute maximal force generated by EDL to 57% of healthy controls (p<0.0001) (FIG. 9). However, when parenterally fed critically ill mice received subcutaneous twice daily a bolus of 75 mg of D,L-3-hydroxybutyrate sodium salt (PN+3HB), maximal muscle force improved dramatically to 83% of healthy controls (p<0.0001) (FIG. 9)."}, "[3]": {"system": "mouse model of prolonged critical illness evoked by sepsis (cecal ligation and puncture)", "test": "Ex vivo force measurement of isolated extensor digitorum longus (EDL) muscle, mouse model of prolonged critical illness evoked by sepsis", "assay_type": "in vivo, mice", "excerpt": "Mice experiment 2: We examined muscle force ex vivo in lean and diet-induced obese CLP mice. […] Mice were randomly allocated to “healthy control” or “CLP.” As in experiment 1 we had observed that muscle wasting occurred irrespective of feeding, we now only compared parenterally fed with pair-fed lean (n=17) and obese (n=15) healthy mice. Until day 5, 15/18 lean and 15/18 obese CLP mice survived. After 5 days, animals were deeply anesthetized and the m. extensor digitorum longus (EDL) was carefully dissected from both hind limbs for ex vivo muscle force measurements.\nas §1\nMuscle function was quantified in isolated extensor digitorum longus (EDL) muscle. Critical illness in parenterally fed mice (PN) reduced the absolute maximal force generated by EDL to 57% of healthy controls (p<0.0001) (FIG. 9). […]\nas §2"}}, "note": "Counter-ions that a name gives are not always drawn."}
{"smiles": "CC(O)CC(=O)O", "note": "(racemic) [D,L-3-hydroxybutyrate sodium salt]", "values": [{"measurement": "dry weight of the EDL muscle", "setting": "[1]; healthy controls 2.7±0.3 mg", "result": "2.0 ± 0.4", "unit": "mg"}, {"measurement": "dry weight of the tibialis anterior muscle", "setting": "[1]; healthy controls 12.4±1.3 mg", "result": "8.4 ± 1.8", "unit": "mg"}, {"measurement": "5-day survivors", "setting": "[2]; fasted critically ill mice", "result": "14/22"}, {"measurement": "risk of death", "setting": "[2]; fasted critically ill mice, 3HB 75 mg boluses twice daily", "result": "increased risk of death"}, {"measurement": "5-day survivors", "setting": "[2]; parenterally fed critically ill mice", "result": "17/21"}, {"measurement": "absolute maximal force generated by EDL, % of healthy controls", "setting": "[3]; Example 7, first experiment, fasted critically ill mice (survivors), 3HB 75 mg subcutaneous bolus twice daily", "result": 33, "unit": "%"}, {"measurement": "effect on muscle weakness and muscle wasting (conclusion)", "setting": "[3]; daily supplementation to parenterally fed mice, prolonged sepsis-induced critical illness", "result": "largely prevented muscle weakness but not muscle wasting"}]}
